Source: publication PMC4971072, “Chemically Homogenous Compounds with Antagonistic Properties at All α1-Adrenoceptor Subtypes but not β1-Adrenoceptor Attenuate Adrenaline-Induced Arrhythmia in Rats” (Frontiers in Pharmacology, 2016)
Counter-ions that a name gives are not always drawn. Marks after values point to notes of the source that are not given here.

Experiments:
[1] = tested on: blood pressure in normotensive rats; test: Influence on blood pressure in normotensive rats; format: in vivo, rat; set-up: Systolic pressure / Diastolic pressure: unit not given beside the values; details: for Diastolic pressure / Systolic pressure: anesthetized normotensive rats
Method: The tested compounds were administered i.p. after 15 min of stabilization period. The compounds were administered at the dose 10 mg/kg.

α1A-adrenoceptors = biological target: T1, α1A-adrenoceptors (Rattus norvegicus, UniProt P43140); test: Functional bioassay, isolated rat tail artery, noradrenaline contraction; format: biochemical; details: noradrenaline as agonist
T1 construct: the middle part of the ventral caudal artery was removed; from tissue; host or cells: isolated rat tail (ventral caudal) artery rings
T1 sequence (P43140 1-466): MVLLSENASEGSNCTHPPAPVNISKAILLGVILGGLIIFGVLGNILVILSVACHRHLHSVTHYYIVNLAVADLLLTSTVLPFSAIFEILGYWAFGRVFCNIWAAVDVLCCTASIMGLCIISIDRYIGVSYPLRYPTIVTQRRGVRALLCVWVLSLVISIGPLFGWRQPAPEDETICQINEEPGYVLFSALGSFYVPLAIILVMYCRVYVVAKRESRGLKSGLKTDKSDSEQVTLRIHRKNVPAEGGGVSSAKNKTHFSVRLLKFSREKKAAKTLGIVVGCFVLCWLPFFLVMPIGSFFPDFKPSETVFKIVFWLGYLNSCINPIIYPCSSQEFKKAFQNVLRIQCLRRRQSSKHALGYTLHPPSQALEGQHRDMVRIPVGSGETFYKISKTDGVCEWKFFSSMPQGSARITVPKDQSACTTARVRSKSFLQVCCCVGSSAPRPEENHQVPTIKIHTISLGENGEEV
Method: The isolated artery, cut into ~4 mm long rings, was then horizontally put up between two stainless steel hooks (diameter 0.15 mm). One hook was fastened to the bottom of the chamber and the other to an isometric FDT10-A force displacement transducer (DMT Model 750TOBS, Denmark), linked with Powerlab 4/26 analyzer (ADInstruments), and processed by LabChart 7 software. […] The initial optimal tissues tension was set at 0.75 g. Chloroethylclonidine (3 μM) as the preferential α1B-adrenoreceptor alkylating agent was used during incubation and after 30 min it was completely washed off. Through 100 min of equilibration tissues were stimulated with noradrenaline (1 μM) four times with washing out until the contractile response become constant. Two cumulative concentration-response curves to noradrenaline, at an interval of 60 min, were established on each arterial ring both in the presence and absence of antagonist. The incubation with antagonists went on for 30 min. The experiments were carried out in the constant presence of yohimbine (0.1 μM) and propranolol (1 μM) to block α2- and β-adrenoceptors, respectively in order to minimize the involvement of these adrenoceptors in the response to noradrenaline.
Data are means ± S.E.M. of at least 4 separate experiments. To establish Hill slopes for the agonist concentration–response curves and calculate EC50 values, curves were fitted to all the data by non-linear regression. The EC50 value in the presence and absence of antagonists was used to ascertain the concentration ratio (CR). Schild analysis was performed.

β1-adrenergic receptor = biological target: T2, β1-adrenergic receptor (Rattus norvegicus, UniProt P18090); test: β1-adrenoceptor radioligand binding assay ([3H]-CGP-12177, rat cerebral cortex); details: read-out: Adrenergic receptors Ki β1
T2 construct: The brains were homogenized in 20 volumes of an ice-cold 50 mM Tris-HCl buffer; from tissue; host or cells: rat cerebral cortex membranes
T2 sequence (P18090 whole entry): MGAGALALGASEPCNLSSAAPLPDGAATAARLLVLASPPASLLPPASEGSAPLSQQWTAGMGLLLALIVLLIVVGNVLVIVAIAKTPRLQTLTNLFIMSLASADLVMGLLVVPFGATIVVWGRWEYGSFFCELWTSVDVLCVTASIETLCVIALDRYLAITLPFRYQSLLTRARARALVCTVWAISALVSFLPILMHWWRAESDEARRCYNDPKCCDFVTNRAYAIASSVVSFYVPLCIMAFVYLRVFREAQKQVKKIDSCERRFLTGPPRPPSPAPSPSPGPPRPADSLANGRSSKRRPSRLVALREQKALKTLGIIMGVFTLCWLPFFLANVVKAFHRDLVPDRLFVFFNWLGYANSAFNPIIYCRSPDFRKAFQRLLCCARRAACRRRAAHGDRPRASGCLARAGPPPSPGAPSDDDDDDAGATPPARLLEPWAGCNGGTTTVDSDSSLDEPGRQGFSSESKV
Method: The α1- and β1-adrenoceptor radioligand binding assay was performed on rat cerebral cortex. […] The cell pellet was resuspended in the Tris–HCl buffer and centrifuged again. Radioligand binding assays were performed in plates (MultiScreen/Millipore). […] The incubation was terminated by rapid filtration through glass fiber filters (Whatman GF/C) using a vacuum manifold (Millipore). The filters were then washed twice with the assay buffer and placed in scintillation vials with a liquid scintillation cocktail. […] All the assays were made in duplicate and the inhibitory constants (Ki) were estimated.
LO–labeled ligand concentration, KD–dissociation constant of labeled ligand

normal ECG in rats = test: The effect on normal electrocardiogram in rats; format: in vivo, rat; details: anesthetized rats
Method: The experiment was carried out to exclude the influence of tested compounds on normal ECG. […] The influence on QRS complex, PQ interval, heart rate (RR), and QTc interval was determined.

[2] = lowest hypotensive dose i.p., 5 min
[3] = lowest hypotensive dose i.p., 10 min
[4] = lowest hypotensive dose i.p., 20 min
[5] = lowest hypotensive dose i.p., 30 min
[6] = lowest hypotensive dose i.p., 40 min
[7] = lowest hypotensive dose i.p., 50 min
[8] = lowest hypotensive dose i.p., 60 min
[9] = lowest hypotensive dose i.p., Control (before administration)
[10] = normotensive rats, lowest hypotensive dose i.p., period of significant effect
[11] = i.p. at ED84, 0 min (initial values)

With COc1ccccc1N1CCN(CCCOc2cc(C)cc(C)c2C)CC1 [HBK-19, 1N-[3-(2,3,5-trimethylphenoxy)propyl]-4N-(2-methoxyphenyl)piperazine hydrochloride] the Diastolic pressure [1, 2] was 94.5 ± 2.6, the Systolic pressure [1, 2] was 121.0 ± 4.0^b and the Diastolic pressure [1, 3] was 87.5 ± 0.4^c. The Systolic pressure [1, 3] was 116.0 ± 3.5^c, the Diastolic pressure [1, 4] was 89.0 ± 2.3^b and the Systolic pressure [1, 4] was 111.5 ± 3.2^c. The Diastolic pressure [1, 5] was 87.0 ± 2.9^c, the Systolic pressure [1, 5] was 110.0 ± 2.3^c and the Diastolic pressure [1, 6] was 84.5 ± 1.4^c. The Systolic pressure [1, 6] was 107.5 ± 3.2^c, the Diastolic pressure [1, 7] was 83.5 ± 1.4^c and the Systolic pressure [1, 7] was 106.0 ± 3.5^c. The Diastolic pressure [1, 8] was 84.0 ± 0.6^c, the Systolic pressure [1, 8] was 106.0 ± 4.0^c and the Diastolic pressure [1, 9] was 98.0 ± 4.6. For the same compound, the Systolic pressure [1, 9] was 127.0 ± 4.0, the lowest hypotensive dose ([1]; normotensive rats, lowest dose significantly lowering systolic and diastolic blood pressure) was 0.625 mg/kg and the “reduction of diastolic blood pressure” value [1, 10] was 9−15%. The “reduction of systolic blood pressure” value [1, 10] was 5−17%, the “Schild slope ± S.E.M., α1A” value (α1A-adrenoceptors) was 0.96 ± 0.05 and the Kb (α1A-adrenoceptors; read-out: pA2 ± S.E.M., α1A (converted)) was 1.23 nM. For the same compound, the Ki (β1-adrenergic receptor) was > 10000 nM, the “influence on ECG parameters (PQ interval, QRS complex, QTc interval)” value (normal ECG in rats; i.p. at ED84) was “without the influence on PQ interval, QRS complex, or QTc interval” and the “reduction of heart rate” value (normal ECG in rats; i.p. at ED84, over the period of significant effect vs. initial values) was 21−22%. For the same compound, the “Beats/min (ECG)” value (normal ECG in rats; [11]) was 355.3 ± 19.7 Beats/min, the “PQ (ECG)” value (normal ECG in rats; [11]) was 56.7 ± 0.7 ms and the “QRS (ECG)” value (normal ECG in rats; [11]) was 35.7 ± 1.0 ms. The “QT (ECG)” value (normal ECG in rats; [11]) was 76.4 ± 8.2 ms, the “QTc (ECG, Bazett)” value (normal ECG in rats; [11]) was 186.9 ± 24.6 ms and the “Beats/min (ECG)” value (normal ECG in rats; i.p. at ED84, 5 min) was 349.7 ± 25.3 Beats/min. The “PQ (ECG)” value (normal ECG in rats; i.p. at ED84, 5 min) was 56.6 ± 0.0 ms, the “QRS (ECG)” value (normal ECG in rats; i.p. at ED84, 5 min) was 34.7 ± 1.6 ms and the “QT (ECG)” value (normal ECG in rats; i.p. at ED84, 5 min) was 76.9 ± 1.1 ms. For the same compound, the “QTc (ECG, Bazett)” value (normal ECG in rats; i.p. at ED84, 5 min) was 185.5 ± 9.5 ms, the “Beats/min (ECG)” value (normal ECG in rats; i.p. at ED84, 10 min) was 339.1 ± 21.0 Beats/min and the “PQ (ECG)” value (normal ECG in rats; i.p. at ED84, 10 min) was 56.0 ± 0.0 ms. For the same compound, the “QRS (ECG)” value (normal ECG in rats; i.p. at ED84, 10 min) was 34.0 ± 0.3 ms, the “QT (ECG)” value (normal ECG in rats; i.p. at ED84, 10 min) was 77.5 ± 0.5 ms and the “QTc (ECG, Bazett)” value (normal ECG in rats; i.p. at ED84, 10 min) was 184.2 ± 6.9 ms. The “Beats/min (ECG)” value (normal ECG in rats; i.p. at ED84, 15 min) was 280.1 ± 1.1^c Beats/min, the “PQ (ECG)” value (normal ECG in rats; i.p. at ED84, 15 min) was 58.2 ± 1.8 ms and the “QRS (ECG)” value (normal ECG in rats; i.p. at ED84, 15 min) was 32.0 ± 1.2 ms. The “QT (ECG)” value (normal ECG in rats; i.p. at ED84, 15 min) was 82.2 ± 2.2 ms, the “QTc (ECG, Bazett)” value (normal ECG in rats; i.p. at ED84, 15 min) was 177.6 ± 4.4 ms and the “Beats/min (ECG)” value (normal ECG in rats; i.p. at ED84, 20 min) was 277.2 ± 5.0^c Beats/min. For the same compound, the “PQ (ECG)” value (normal ECG in rats; i.p. at ED84, 20 min) was 60.1 ± 1.3 ms, the “QRS (ECG)” value (normal ECG in rats; i.p. at ED84, 20 min) was 32.7 ± 0.4 ms and the “QT (ECG)” value (normal ECG in rats; i.p. at ED84, 20 min) was 84.3 ± 1.1 ms. The “QTc (ECG, Bazett)” value (normal ECG in rats; i.p. at ED84, 20 min) was 181.1 ± 4.1 ms, the “Beats/min (ECG)” value (normal ECG in rats; i.p. at ED84, 30 min) was 278.2 ± 6.7^c Beats/min and the “PQ (ECG)” value (normal ECG in rats; i.p. at ED84, 30 min) was 60.1 ± 1.7 ms. The “QRS (ECG)” value (normal ECG in rats; i.p. at ED84, 30 min) was 34.3 ± 0.2 ms, the “QT (ECG)” value (normal ECG in rats; i.p. at ED84, 30 min) was 82.2 ± 0.4 ms and the “QTc (ECG, Bazett)” value (normal ECG in rats; i.p. at ED84, 30 min) was 177.0 ± 3.0 ms. For the same compound, the “Beats/min (ECG)” value (normal ECG in rats; i.p. at ED84, 40 min) was 332.8 ± 18.9 Beats/min, the “PQ (ECG)” value (normal ECG in rats; i.p. at ED84, 40 min) was 59.3 ± 0.7 ms and the “QRS (ECG)” value (normal ECG in rats; i.p. at ED84, 40 min) was 32.0 ± 3.1 ms. For the same compound, the “QT (ECG)” value (normal ECG in rats; i.p. at ED84, 40 min) was 81.5 ± 2.5 ms, the “QTc (ECG, Bazett)” value (normal ECG in rats; i.p. at ED84, 40 min) was 192.2 ± 11.2 ms and the “Beats/min (ECG)” value (normal ECG in rats; i.p. at ED84, 50 min) was 396.8 ± 31.8 Beats/min. The “PQ (ECG)” value (normal ECG in rats; i.p. at ED84, 50 min) was 55.1 ± 0.3 ms, the “QRS (ECG)” value (normal ECG in rats; i.p. at ED84, 50 min) was 36.0 ± 1.5 ms and the “QT (ECG)” value (normal ECG in rats; i.p. at ED84, 50 min) was 76.5 ± 0.5 ms. For the same compound, the “QTc (ECG, Bazett)” value (normal ECG in rats; i.p. at ED84, 50 min) was 196.2 ± 6.9 ms, the “Beats/min (ECG)” value (normal ECG in rats; i.p. at ED84, 60 min) was 398.0 ± 32.4 Beats/min and the “PQ (ECG)” value (normal ECG in rats; i.p. at ED84, 60 min) was 56.3 ± 1.1 ms. For the same compound, the “QRS (ECG)” value (normal ECG in rats; i.p. at ED84, 60 min) was 30.3 ± 1.1 ms, the “QT (ECG)” value (normal ECG in rats; i.p. at ED84, 60 min) was 80.2 ± 0.4 ms and the “QTc (ECG, Bazett)” value (normal ECG in rats; i.p. at ED84, 60 min) was 206.3 ± 9.6 ms.
